Results from patent US8937096B2, “Use of benzo-fused heterocyle sulfamide derivatives for the treatment of mania and bipolar disorder” (priority 2005, dated 2015).
“Also recorded” adds a separate entry of the source.

Legend:
dominant rats = test: Dominant-Submissive Relations (DSR) assay: Reduction of Dominant Behavior Model (RDBM) of mania; assay type: in vivo, rat
Experimental: (§1) The DSR assay is divided into two models: Reduction of Dominant Behavior Model (RDBM) of mania and Reduction of Submissive Behavior Model (RSBM) of depression. The RDBM, wherein the dominant animals are treated with test compound, is predictive of the ability of the test compound to treat mania. The RSBM, wherein the submissive animals are treated with test compound, is predictive of the ability of the test compound to treat depression.
(§2) Male Sprague Dawley rats (140 to 160 g) from Charles River Laboratories Wilmington, Mass. were used in this assay. Shipments of rats were received at two-week intervals. Each shipment went through five-day quarantine, one-week acclimation period, and one-week selection process, followed by five-weeks of drug or vehicle treatment to those pairs selected.
(§3) Rats were housed four per cage. Access to food was restricted to one hour per day after testing on Monday through Thursday. After testing on Friday, rats had free access to food until being fasted again on Sunday. At no time were the rats deprived of water. The food deprivation periods used had little effect on weight gain as the average weight of rats was about 300 g at the end of the study. At the conclusion of experiment rats were sacrificed by decapitation, the trunk blood and brains were collected for in vitro experiments and drug concentration measurements.
(§4) The basic testing apparatus consisted of two chambers connected with a tunnel only large enough to allow one rat to pass through at a time. On the floor, at the mid-point of the tunnel was a container of sweetened milk. This basic apparatus was replicated, so that a total of four pairs of rats can be video tracked simultaneously. The camera can distinguish rats marked by different colors. Thus, the rats' heads were colored for the purpose of video tracking, red in one cage and yellow in the other cage. Only one animal at a time can have comfortable access to the feeder, but both animals can drink milk during the five-minute daily session. During the five-minute daily sessions, time spent in the feeder zone by each rat was recorded by the video tracking software and saved into a text file.
The test began with a random assignment of rats into pairs. Each member of a pair was placed in an opposite chamber of the testing apparatus. The time spent in the feeder zone by each animal was recorded. During the first week (five days) of testing the animals habituate to the new environment. Dominance was assigned to the animal with the highest score during the second week of testing if three criteria were achieved. First, there must have been a significant difference (two-tailed t-test, P<0.05) between the average daily drinking scores of both animals. Second, the dominant animal score must have been at least 25% greater than the submissive animal's score. Finally, there must have been no “reversals” during the pair selection week where the putative submissive rat out-scored its dominant partner on isolated occasions. Ideally there were minimal reversals during the acclimation week as well. About twenty-five to thirty-three percent of the initial animal pairs achieved these criteria and only these pairs were continued in the study.
(§5) Significant differences between time spent on the feeder by dominant and submissive rats were determined by ANOVA using GraphPad Prism software (GraphPad Software, Inc. San Diego, Calif.) followed by a two-tailed t-test (P<0.05). Comparisons were made between treatment groups using normalized dominance level values in paired animals. The dominance level is a value that measures social relation between paired subjects. Dominance level (DL)=FTD−FTS where FTD is the feeder time of dominant rats and FTS is the feeder time of submissive rats. The normalization was conducted according to the formula: Dominance Level(week n in %)=(Dominance Level(week n))/(Dominance Level(week 2) […]

submissive rats = test: Dominant-Submissive Relations (DSR) assay: Reduction of Submissive Behavior Model (RSBM) of depression; assay type: in vivo, rat
Experimental: as §1, §2, §3, §4
The test began with a random assignment of rats into pairs. Each member of a pair was placed in an opposite chamber of the testing apparatus. The time spent in the feeder zone by each animal was recorded. During the first week (five days) of testing the animals habituate to the new environment. Dominance was assigned to the animal with the highest score during the second week of testing if three criteria were achieved. First, there must have been a significant difference (two-tailed t-test, P<0.05) between the average daily drinking scores of both animals. Second, the dominant animal score must have been at least 25% greater than the submissive animal's score. Finally, there must have been no “reversals” during the pair selection week where the putative submissive rat out-scored its dominant partner on isolated occasions. Ideally there were minimal reversals during the acclimation week as well. About twenty-five to thirty-three percent of the initial animal pairs achieved these criteria and only these pairs were continued in the study. […]
as §5

[1] = tested on: amygdala kindled seizures; test: Amygdala Kindling Assay (Kindling Prevention); assay type: in vivo, rat
[2] = tested on: hippocampal kindled seizures; test: Rat Hippocampal Kindling Test (Interruption of Kindled State); assay type: in vivo
Experimental: In the present rapid hippocampal kindling model adult male Sprague-Dawley rats (300-400 g) were surgically implanted with bipolar electrodes placed in the hippocampus. […] One week later, the rats received 2-3 supra-threshold stimulations delivered every 30 min before treatment with test compound, to ensure stability of the behavioral seizure stage and after-discharge duration. Fifteen minutes after the last stimulation, a single dose of vehicle or test compound was administered i.p. (intraperitoneally). After 15 min, each rat was then stimulated every 30 min for 3 to 4 h. After each stimulation, individual seizure scores and after-discharge durations were recorded. The group mean±SEM were calculated for each parameter. Eight rats per dose and a minimum of four doses were used to establish an ED50 value. Efficacy was measured as the ability of a compound to modify the seizure score (severity of spread) and after-discharge duration (ADD; excitability) of the generalized seizures.
Thus, according to the theories presented in current literature (Ghaemi, S. N., Boiman, E. E., and Goodwin, F. K., Soc. of Bio. Psychiatry, (1999), vol. 45, pp 137-144; Stoll, A. L., and Severus, W. E., Harvard Rev. Psychiatry, July/August (1996), Vol. 4, No. 2, pp 77-89) a decrease in seizure score and/or ADD may also be predictive of the ability of a test compound to treat the cycling associated with bipolar disorder.

[3] = Median toxic dose (TD50) / toxic doses of Compound #8 and reference drugs; conditions: Sprague-Dawley, rat, in vivo, ip

In the case of NS(=O)(=O)NC[C@H]1COc2cc(Cl)ccc2O1 [Compound #8, (2S)-(−)-N-(6-Chloro-2,3-dihydro-benzo[1,4]dioxin-2-ylmethyl)-sulfamide], the “AOT50 compared with lithium” value (dominant rats; 0.05 mg/kg and 0.5 mg/kg, non-linear regression fit of normalized daily DL values) is reported as “significantly shorter from that of lithium”, the “first day of consistent lack of statistical significance between feeder time of dominant and submissive rats (activity onset time)” value (dominant rats; 0.05 mg/kg p.o. QD) is reported as 3 days and the “first day of consistent lack of statistical significance between feeder time of dominant and submissive rats (activity onset time)” value (dominant rats; 0.5 mg/kg p.o. QD) is reported as 4 days. The “dominance level (DL) values vs vehicle” value (dominant rats; 0.5 mg/kg p.o. QD, 5 weeks, strongest effect) was “significant difference in dominance level (DL) values between vehicle and compound treated rats starting in the second week”, the “first day of consistent lack of statistical significance between feeder time of dominant and submissive rats (activity onset time)” value (dominant rats; 2.5 mg/kg p.o. QD) was 10 days and the “dominance level (DL) response” value (dominant rats; 2.5 mg/kg, 5.0 mg/kg and 50.0 mg/kg p.o., compared with 0.5 mg/kg dose (not significantly different)) was “weaker response”. For the same molecule, the “first day of consistent lack of statistical significance between feeder time of dominant and submissive rats (activity onset time)” value (dominant rats; 5.0 mg/kg p.o. QD) was 11 days, the “first day of consistent lack of statistical significance between feeder time of dominant and submissive rats (activity onset time)” value (dominant rats; 50.0 mg/kg p.o. QD) was 3 days and the ED50 (dominant rats; Rattus norvegicus, po, p.o. QD, calculated) was 0.03 ± 0.004 mg/kg. For the same molecule, the “difference between dominant and submissive rats lost” value (dominant rats; dominant rats treated p.o. QD at 0.05 mg/kg, 0.5 mg/kg and 50.0 mg/kg) was “lost after the first week of treatment”, the “difference between dominant and submissive rats lost” value (dominant rats; dominant rats treated p.o. QD at 2.5 mg/kg and 5.0 mg/kg) was “after the second week of treatment” and the dominant behavior (dominant rats; overall result of the assay) was “reduced dominant behavior”. For the same molecule, the “Emax in the RDBM” value (dominant rats; p.o. QD, calculated) was 116.4±2.3%, the “permissiveness of the treated dominant rats” value (dominant rats; treated dominant rats permitted submissive partners to increase time on the feeder) was “observed to increase” and the “loss of significance between dominant and submissive rats feeder time” value (submissive rats; 2.5 mg/kg and 120.0 mg/kg p.o.) was “no consistent loss of significance”. The “Activity Onset Time at the 50% effect (AOT50)” value (submissive rats; 2.5 mg/kg p.o.) was 2.1 days, the “Dominance Level (DL) values vs control” value (submissive rats; 2.5 mg/kg p.o.) was “did not significantly differ from control” and the “maximum of the effect (non-linear regression), ± SEM” value (submissive rats; 2.5 mg/kg p.o.) was 52.4±32.7%. The “Activity Onset Time at the 50% effect (AOT50)” value (submissive rats; 12 mg/kg p.o.) was 5.3 days, the “maximum of the effect (non-linear regression), ± SEM” value (submissive rats; 12 mg/kg p.o.) was 87.9±42.6% and the “Dominance Level (DL) values vs control” value (submissive rats; 12.0 mg/kg p.o.) was “significantly different from vehicle treated controls after the second, fourth and fifth week of treatment”. The “first day of consistent lack of statistical significance between feeder time of dominant and submissive rats (activity onset time)” value (submissive rats; 12.0 mg/kg p.o.) was 6 days, the “Activity Onset Time at the 50% effect (AOT50)” value (submissive rats; 60 mg/kg p.o.) was 1.6 days and the “Dominance Level (DL) values vs control” value (submissive rats; 60 mg/kg p.o.) was “significant difference in DL values relative to vehicle starting at the first week and continuing through the treatment duration of 5 weeks”. The “first day of consistent lack of statistical significance between feeder time of dominant and submissive rats (activity onset time)” value (submissive rats; 60 mg/kg p.o.) was 4 days, the “maximum of the effect (non-linear regression), ± SEM” value (submissive rats; 60 mg/kg p.o.) was 116.9±29.5% and the “Dominance Level (DL) values vs control” value (submissive rats; 120 mg/kg p.o., significance dissipated after the second week) was “significantly different from the control group after first week”. For the same molecule, the “submissiveness during first week of treatment” value (submissive rats; fluoxetine 10 mg/kg i.p., Compound #8 treated groups p.o.) was “did not show this effect”, the submissive behavior (submissive rats; p.o. once a day for 5 weeks, 2.5-120 mg/kg) was “reduce submissive behavior in a dose-dependent manner; also recorded: reduced submissive behavior” and the “Emax in the RSBM” value (submissive rats; p.o., calculated) was 131.4±4.7%. For the same molecule, the “significant difference between dominant and submissive rats lost” value (submissive rats; submissive rats treated p.o., all doses used (2.5, 12, 60, 120 mg/kg)) was “lost after the first week of treatment”, the acquisition of kindling ([1]; 75 mg/kg i.p.) was “prevented the acquisition of the full generalized kindled seizure” and the “seizure score at the conclusion of the drug- and stimulus-free period” value ([1]; 75 mg/kg i.p. during kindling acquisition, Racine scale, vehicle 4.6±0.24) was 1.4±0.40. The “after-discharge (AD) duration vs vehicle” value ([1]; 75 mg/kg i.p., kindling acquisition phase) was “No statistical difference between treatment groups”, the “rats with significant reduction in global seizure activity (score <3)” value ([2]; after treatment i.p.) was 6 out of 8 and the “rats with seizure scores significantly reduced from 5 to 1” value ([2]; i.p., p=0.0003) was 4 out of 8. For the same molecule, the “effect on the ADD (after-discharge duration)” value ([2]; i.p., p=0.07) was “no statistically significant effect” and the TD50 [3] was roughly 100 mg/kg.
